Measured values published in ChEMBL document CHEMBL5329205, “Development of novel quinoline-NO donor hybrids inducing human breast cancer cells apoptosis via inhibition of topoisomerase I” (Bioorg Med Chem, 2023).
Active and inactive are the calls of the source. The rule behind the calls is not given here.

Experiments:
MCF7 [1] = test: Induction of apoptosis in human MCF7 cells assessed as nucleus fragmentation upto 3 uM incubated for 48 hrs by Hoechst-33342 staining based fluorescent microscopic analysis; assay type: functional, cell-based
[2] = Toxicity in BALB/c mouse xenografted with human MCF7 cells assessed as lung damage at 10 mg/kg, ip administered once every two days for 3 weeks by H and E staining based microscopic analysis; assay type: organism-based; settings: in vivo, 504 h
[3] = molecular target: T1, DNA topoisomerase 1 (Homo sapiens) (UniProt P11387); test: Inhibition of human DNA topoisomerase I mediated supercoiled DNA relaxation activity incubated for 30 mins by Ged Red staining based agarose gel electrophoresis analysis; settings: dose 20-100 µM
T1 sequence (whole entry): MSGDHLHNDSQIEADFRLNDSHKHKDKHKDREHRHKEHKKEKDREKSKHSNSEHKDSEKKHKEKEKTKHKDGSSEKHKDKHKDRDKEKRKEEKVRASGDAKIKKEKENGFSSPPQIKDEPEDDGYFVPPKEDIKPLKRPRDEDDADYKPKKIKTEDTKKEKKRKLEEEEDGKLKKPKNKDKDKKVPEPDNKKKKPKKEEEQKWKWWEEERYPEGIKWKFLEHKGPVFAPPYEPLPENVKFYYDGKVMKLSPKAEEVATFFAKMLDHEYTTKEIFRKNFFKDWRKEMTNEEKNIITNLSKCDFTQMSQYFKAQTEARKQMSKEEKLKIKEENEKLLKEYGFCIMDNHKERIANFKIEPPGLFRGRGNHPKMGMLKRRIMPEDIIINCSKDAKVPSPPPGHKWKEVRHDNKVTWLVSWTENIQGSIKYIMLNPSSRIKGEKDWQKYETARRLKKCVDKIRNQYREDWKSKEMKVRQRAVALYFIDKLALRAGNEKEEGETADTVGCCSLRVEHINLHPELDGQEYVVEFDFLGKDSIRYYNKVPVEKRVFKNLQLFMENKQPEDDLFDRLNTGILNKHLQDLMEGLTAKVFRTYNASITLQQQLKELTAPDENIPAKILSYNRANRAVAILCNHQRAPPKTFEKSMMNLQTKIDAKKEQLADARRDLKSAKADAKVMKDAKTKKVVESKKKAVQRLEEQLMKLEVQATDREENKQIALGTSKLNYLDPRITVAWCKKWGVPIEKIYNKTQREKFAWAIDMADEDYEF

MCF7 [4] = test: Induction of apoptosis in human MCF7 cells assessed as necrotic cells at 3 uM incubated for 48 hrs by Annexin-V/PI staining based flow cytometry analysis (reference value: 0.0%); assay type: functional
MCF7 [5] = test: Induction of cell cycle arrest in human MCF7 cells assessed as G1 phase cells at 1.5 uM incubated for 24 hrs by PI/RNaseA staining based flow cytometry analysis (reference value: 66.08 %); assay type: functional
MCF7 [6] = test: Induction of cell cycle arrest in human MCF7 cells assessed as G2 phase cells at 0.75 uM incubated for 24 hrs by PI/RNaseA staining based flow cytometry analysis (reference value: 7.67 %); assay type: functional
[7] = Toxicity in BALB/c nude mouse xenografted with human MCF7 cells assessed as heart damage at 5 mg/kg, ip administered once every two days for 3 weeks by H and E staining based microscopic analysis; assay type: organism-based; settings: in vivo, 504 h
[8] = Toxicity in BALB/c mouse xenografted with human MCF7 cells assessed as heart damage at 10 mg/kg, ip administered once every two days for 3 weeks by H and E staining based microscopic analysis; assay type: organism-based; settings: in vivo, 504 h
MCF7 [9] = test: Induction of cell cycle arrest in human MCF7 cells assessed as G2 phase cells at 1.5 uM incubated for 24 hrs by PI/RNaseA staining based flow cytometry analysis (reference value: 7.67 %); assay type: functional
MCF7 [10] = test: Induction of apoptosis in human MCF7 cells assessed as bright blue appearance of cells upto 3 uM incubated for 48 hrs by Hoechst-33342 staining based fluorescent microscopic analysis; assay type: functional, cell-based
MCF7 [11] = test: Induction of apoptosis in human MCF7 cells assessed as total apoptotic cells at 0.75 to 3 uM incubated for 48 hrs by Annexin-V/PI staining based flow cytometry analysis (reference value: 0.3 %); assay type: functional; settings: dose 0.75-3 µM
MCF7 [12] = test: Induction of cell cycle arrest in human MCF7 cells assessed as G2 phase cells at 3 uM incubated for 24 hrs by PI/RNaseA staining based flow cytometry analysis (reference value: 7.67 %); assay type: functional
MCF7 [13] = test: Induction of apoptosis in human MCF7 cells assessed as viable cells at 1.5 uM incubated for 48 hrs by Annexin-V/PI staining based flow cytometry analysis (reference value: 99.7%); assay type: functional; settings: read-out: Activity
[14] = Toxicity in BALB/c mouse xenografted with human MCF7 cells assessed as liver damage at 10 mg/kg, ip administered once every two days for 3 weeks by H and E staining based microscopic analysis; assay type: organism-based; settings: in vivo, 504 h
[15] = Toxicity in BALB/c mouse xenografted with human MCF7 cells assessed as spleen damage at 5 mg/kg, ip administered once every two days for 3 weeks by H and E staining based microscopic analysis; assay type: organism-based; settings: in vivo, 504 h
MCF7 [16] = test: Induction of apoptosis in human MCF7 cells assessed as early apoptotic cells at 3 uM incubated for 48 hrs by Annexin-V/PI staining based flow cytometry analysis (reference value: 0.3%); assay type: functional
[17] = molecular target: ATP-dependent translocase ABCB1 (Homo sapiens, UniProt P08183); test: Inhibition of P-glycoprotein mediated Rhodamine-123 transport in human MCF7ADR cells assessed as increase in fluorescence index of rhodamine-123 at 1.5 to 3 uM incubated for 24 hrs by flow cytometry analysis; assay type: cell-based; settings: dose 1.5-3 µM
MCF7 [18] = test: Induction of apoptosis in human MCF7 cells assessed as necrotic cells at 0.75 uM incubated for 48 hrs by Annexin-V/PI staining based flow cytometry analysis (reference value: 0.0%); assay type: functional
MCF7 [19] = test: Antiproliferative activity against human MCF7 cells assessed as NO release at 4 uM preincubated with PTIO for 2 hrs followed by compound addition and measured after 24 hrs by total nitric oxide assay; assay type: functional, cell-based
MCF7 [20] = test: Induction of cell cycle arrest in human MCF7 cells assessed as S phase cells at 3 uM incubated for 24 hrs by PI/RNaseA staining based flow cytometry analysis (reference value: 22.2 %); assay type: functional
NCI/ADR-RES = test: Antiproliferative activity against human MCF7ADR cells assessed as inhibition of cell growth measured after 48 hrs by MTT assay; assay type: functional, cell-based
MCF7 [21] = test: Induction of cell cycle arrest in human MCF7 cells assessed as G1 phase cells at 3 uM incubated for 24 hrs by PI/RNaseA staining based flow cytometry analysis (reference value: 66.08 %); assay type: functional
A549 = test: Antiproliferative activity against human A549 cells assessed as inhibition of cell growth incubated for 48 hrs by MTT assay; assay type: functional, cell-based; settings: A549, 48 h
MCF7 [22] = test: Induction of apoptosis in human MCF7 cells assessed as necrotic cells at 1.5 uM incubated for 48 hrs by Annexin-V/PI staining based flow cytometry analysis (reference value: 0.0%); assay type: functional
MCF7 [23] = test: Induction of cell cycle arrest in human MCF7 cells assessed as S phase cells at 1.5 uM incubated for 24 hrs by PI/RNaseA staining based flow cytometry analysis (reference value: 22.2 %); assay type: functional
[24] = Cytotoxicity against human MCF-10A cells assessed as cell growth inhibition measured after 48 hrs by MTT assay; assay type: toxicity, cell-based

Chain of ATP-dependent translocase ABCB1 (P08183 whole entry): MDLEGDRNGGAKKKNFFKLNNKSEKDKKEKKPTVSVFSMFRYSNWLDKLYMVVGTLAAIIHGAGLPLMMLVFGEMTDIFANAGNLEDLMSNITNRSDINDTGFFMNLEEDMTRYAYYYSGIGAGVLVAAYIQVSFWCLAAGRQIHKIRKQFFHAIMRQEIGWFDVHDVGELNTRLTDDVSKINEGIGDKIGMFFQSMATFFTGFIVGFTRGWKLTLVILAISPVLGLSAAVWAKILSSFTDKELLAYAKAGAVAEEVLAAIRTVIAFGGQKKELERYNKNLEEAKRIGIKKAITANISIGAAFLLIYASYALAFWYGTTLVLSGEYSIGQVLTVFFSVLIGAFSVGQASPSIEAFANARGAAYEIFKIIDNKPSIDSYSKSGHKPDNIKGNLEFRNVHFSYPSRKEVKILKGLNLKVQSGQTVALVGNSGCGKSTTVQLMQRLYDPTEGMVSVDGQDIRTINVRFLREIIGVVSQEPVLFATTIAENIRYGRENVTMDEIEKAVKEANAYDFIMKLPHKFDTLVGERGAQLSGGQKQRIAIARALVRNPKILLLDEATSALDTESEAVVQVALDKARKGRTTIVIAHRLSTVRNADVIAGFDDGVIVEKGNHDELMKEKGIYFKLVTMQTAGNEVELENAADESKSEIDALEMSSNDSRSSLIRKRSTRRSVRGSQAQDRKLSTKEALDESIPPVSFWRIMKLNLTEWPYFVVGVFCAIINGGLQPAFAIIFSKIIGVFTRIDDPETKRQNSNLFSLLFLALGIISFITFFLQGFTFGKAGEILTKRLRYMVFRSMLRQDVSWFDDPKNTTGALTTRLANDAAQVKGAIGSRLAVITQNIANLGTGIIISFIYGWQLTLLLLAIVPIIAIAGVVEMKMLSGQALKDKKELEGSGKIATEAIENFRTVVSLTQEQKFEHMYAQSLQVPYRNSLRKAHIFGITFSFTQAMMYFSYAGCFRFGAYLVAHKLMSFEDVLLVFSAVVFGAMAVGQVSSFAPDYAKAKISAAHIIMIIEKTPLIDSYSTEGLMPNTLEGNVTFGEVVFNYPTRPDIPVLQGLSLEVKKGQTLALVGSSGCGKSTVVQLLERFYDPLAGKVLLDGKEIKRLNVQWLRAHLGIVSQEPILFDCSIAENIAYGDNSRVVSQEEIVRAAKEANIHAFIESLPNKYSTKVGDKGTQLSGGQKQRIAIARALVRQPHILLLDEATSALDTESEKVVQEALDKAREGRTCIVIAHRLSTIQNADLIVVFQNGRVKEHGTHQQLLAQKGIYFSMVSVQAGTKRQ

With COc1cc(-c2cc(C(=O)OCCCCCOc3no[n+]([O-])c3S(=O)(=O)c3ccccc3)c3ccccc3n2)cc(OC)c1OC the Activity (MCF7 [1]) was “Active”, the Activity [2] was “Non-Toxic” and the inhibition [3] was “Dose-Dependent Effect”. For the same compound, the Activity (MCF7 [4]) was 1.2%, the Activity (MCF7 [5]) was 61.5% and the Activity (MCF7 [6]) was 10.62%. The Activity [7] was “Non-Toxic”, the Activity [8] was “Non-Toxic” and the Activity (MCF7 [9]) was 19.12%. The Activity (MCF7 [10]) was “Active”, the Activity (MCF7 [11]) was 64.3% and the Activity (MCF7 [12]) was 23.52%. For the same compound, the viability at 1.5 µM (MCF7 [13]) was 65.4%, the Activity [14] was “Non-Toxic” and the Activity [15] was “Non-Toxic”. For the same compound, the Activity (MCF7 [16]) was 14.3%, the “inhibition (INH)” value [17] was “Active” and the Activity (MCF7 [18]) was 3%. The Activity (MCF7 [19]) was “inactive”, the Activity (MCF7 [20]) was 17.82% and the IC50 (NCI/ADR-RES) was 0.62 µM. For the same compound, the Activity (MCF7 [21]) was 58.98%, the IC50 (A549) was 2.13 µM and the Activity (MCF7 [22]) was 3.3%. It also gave an Activity (MCF7 [23]) of 20.71% and an IC50 at 48 h [24] of 26.9 µM.
